Measured values published in US20020150626A1, “Lipid-protein-sugar particles for delivery of nucleic acids” (priority 2000, published 2002).
Like-named read-outs stand apart in the source and are kept apart here.

Legend:
[1] = Median lethal dose of bupivacaine (literature); format: in vivo; conditions: in a 350 g rat
[2] = rat, in vivo
Protocol: The presence of functional deficits in the un-injected extremity was used as a measure of the degree of systemically distributed local anesthetic (i.e., toxicity). Thermal latency (the length of time that a rat would leave his paw on the hotplate) was measured in the un-injected leg at predetermined intervals, in rats who received 10% bupivacaine LPSPs or 50% bupivacaine microspheres (FIG. 4).

[3] = adult rats; Kohane et al. 1998; cited from earlier work

Which results are given for `CCCCN1CCCCC1C(=O)Nc1c(C)cccc1C` (stereo not drawn) [bupivacaine in solution, bupivacaine]?
median lethal dose [1]: 10.5 mg; signs of systemic toxicity (contralateral thermal latency) [2]: one of those rats had severe signs of systemic toxicity; median lethal dose [3]: 30 ± 5 mg/kg
